Test results taken from article PMC8642396, “Crystal structure of human METTL6, the m^3C methyltransferase” (Communications Biology, 2021).
Positions count from the first letter of the chain named.

What was measured:
Format in all cases: binding
hMETTL6 [1] = target: T1, hMETTL6 (Homo sapiens, UniProt Q8TCB7, E85Q); assay: isothermal titration calorimetry
T1 construct: gene METTL6
T1 sequence (Q8TCB7 1-284 E85Q): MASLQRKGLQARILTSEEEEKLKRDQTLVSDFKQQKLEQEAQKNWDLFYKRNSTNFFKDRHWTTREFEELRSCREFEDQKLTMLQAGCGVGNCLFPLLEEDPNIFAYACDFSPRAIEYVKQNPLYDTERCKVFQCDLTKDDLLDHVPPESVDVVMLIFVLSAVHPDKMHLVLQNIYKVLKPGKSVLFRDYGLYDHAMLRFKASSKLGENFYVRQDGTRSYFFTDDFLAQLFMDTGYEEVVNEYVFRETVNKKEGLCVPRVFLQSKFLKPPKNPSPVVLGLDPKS

hMETTL6 [2] = target: T2, hMETTL6 (Homo sapiens, UniProt Q8TCB7, Y49F); assay: isothermal titration calorimetry
T2 construct: gene METTL6
T2 sequence (Q8TCB7 1-284 Y49F): T1 sequence (Q8TCB7 1-284 E85Q) with Y49F, Q85E

hMETTL6 [3] = target: T3, hMETTL6 (Homo sapiens, UniProt Q8TCB7, D110A); assay: isothermal titration calorimetry; conditions: pH 8.0, 150 mM NaCl, 1 mM DTT, 25 °C; mutant partly aggregated, structural integrity disrupted
T3 construct: gene METTL6
T3 sequence (Q8TCB7 1-284 D110A): T1 sequence (Q8TCB7 1-284 E85Q) with Q85E, D110A

hMETTL6 [4] = target: T4, hMETTL6 (Homo sapiens, UniProt Q8TCB7, C93S); assay: isothermal titration calorimetry
T4 construct: gene METTL6
T4 sequence (Q8TCB7 1-284 C93S): T1 sequence (Q8TCB7 1-284 E85Q) with Q85E, C93S

hMETTL6 [5] = target: T5, hMETTL6 (Homo sapiens, UniProt Q8TCB7, H61N); assay: isothermal titration calorimetry
T5 construct: gene METTL6
T5 sequence (Q8TCB7 1-284 H61N): T1 sequence (Q8TCB7 1-284 E85Q) with H61N, Q85E

hMETTL6 [6] = target: T6, hMETTL6 (Homo sapiens, UniProt Q8TCB7); assay: isothermal titration calorimetry
T6 construct: gene METTL6
T6 sequence (Q8TCB7 1-284): T1 sequence (Q8TCB7 1-284 E85Q) with Q85E

hMETTL6 [7] = target: T7, hMETTL6 (Homo sapiens, UniProt Q8TCB7, F111L); assay: isothermal titration calorimetry
T7 construct: gene METTL6
T7 sequence (Q8TCB7 1-284 F111L): T1 sequence (Q8TCB7 1-284 E85Q) with Q85E, F111L

hMETTL6 [8] = target: T6, hMETTL6; assay: X-ray crystal structure, […] Å; conditions: protein mixed with 2 mM SAH; active site; ammonium sulfate, pH 5.6

Compound | Kd (hMETTL6 [1]) [µM] | Kd (hMETTL6 [2]) [µM] | KD (hMETTL6 [3]) | Kd (hMETTL6 [4]) [µM] | Kd (hMETTL6 [5]) [µM] | Kd (hMETTL6 [6]) [µM] | Kd (hMETTL6 [7]) [µM] | X-ray crystal structure, 1.9 Å (hMETTL6 [8])
C[S+](CC[C@H](N)C(=O)O)C[C@H]1O[C@@H](n2cnc3c(N)ncnc32)[C@H](O)[C@@H]1O (some centres unmarked) [SAM] | 87.5 | 9.5 | the D110A mutation almost eliminated the association capacity of the enzyme | 2.25 | 3.11 | ~2.7 | 8.05 | –
Nc1ncnc2c1ncn2[C@@H]1O[C@H](CSCC[C@H](N)C(=O)O)[C@@H](O)[C@H]1O [SAH] | – | – | – | – | – | – | – | we solved the structure of hMETTL6 in complex with SAH at a high resolution
